{"source": "patent US7829688B2", "about": "“Peptides of CaV2.2 that inhibit pain” (The Board of Regents of the University of Texas System, priority 2004, dated 2010)", "origin": "cited, not measured here", "biological_target": "T1, N-type Ca2+ channels (Rattus norvegicus, UniProt Q02294, C1579L/DEL1236-1239/DEL415-415/E177G/INS1558ET)", "T1 construct": "host or cells: rat, in vivo (Malmberg and Yaksh, 1994, 1995)", "T1 sequence (Q02294 whole entry, looked up, stated change not applied)": "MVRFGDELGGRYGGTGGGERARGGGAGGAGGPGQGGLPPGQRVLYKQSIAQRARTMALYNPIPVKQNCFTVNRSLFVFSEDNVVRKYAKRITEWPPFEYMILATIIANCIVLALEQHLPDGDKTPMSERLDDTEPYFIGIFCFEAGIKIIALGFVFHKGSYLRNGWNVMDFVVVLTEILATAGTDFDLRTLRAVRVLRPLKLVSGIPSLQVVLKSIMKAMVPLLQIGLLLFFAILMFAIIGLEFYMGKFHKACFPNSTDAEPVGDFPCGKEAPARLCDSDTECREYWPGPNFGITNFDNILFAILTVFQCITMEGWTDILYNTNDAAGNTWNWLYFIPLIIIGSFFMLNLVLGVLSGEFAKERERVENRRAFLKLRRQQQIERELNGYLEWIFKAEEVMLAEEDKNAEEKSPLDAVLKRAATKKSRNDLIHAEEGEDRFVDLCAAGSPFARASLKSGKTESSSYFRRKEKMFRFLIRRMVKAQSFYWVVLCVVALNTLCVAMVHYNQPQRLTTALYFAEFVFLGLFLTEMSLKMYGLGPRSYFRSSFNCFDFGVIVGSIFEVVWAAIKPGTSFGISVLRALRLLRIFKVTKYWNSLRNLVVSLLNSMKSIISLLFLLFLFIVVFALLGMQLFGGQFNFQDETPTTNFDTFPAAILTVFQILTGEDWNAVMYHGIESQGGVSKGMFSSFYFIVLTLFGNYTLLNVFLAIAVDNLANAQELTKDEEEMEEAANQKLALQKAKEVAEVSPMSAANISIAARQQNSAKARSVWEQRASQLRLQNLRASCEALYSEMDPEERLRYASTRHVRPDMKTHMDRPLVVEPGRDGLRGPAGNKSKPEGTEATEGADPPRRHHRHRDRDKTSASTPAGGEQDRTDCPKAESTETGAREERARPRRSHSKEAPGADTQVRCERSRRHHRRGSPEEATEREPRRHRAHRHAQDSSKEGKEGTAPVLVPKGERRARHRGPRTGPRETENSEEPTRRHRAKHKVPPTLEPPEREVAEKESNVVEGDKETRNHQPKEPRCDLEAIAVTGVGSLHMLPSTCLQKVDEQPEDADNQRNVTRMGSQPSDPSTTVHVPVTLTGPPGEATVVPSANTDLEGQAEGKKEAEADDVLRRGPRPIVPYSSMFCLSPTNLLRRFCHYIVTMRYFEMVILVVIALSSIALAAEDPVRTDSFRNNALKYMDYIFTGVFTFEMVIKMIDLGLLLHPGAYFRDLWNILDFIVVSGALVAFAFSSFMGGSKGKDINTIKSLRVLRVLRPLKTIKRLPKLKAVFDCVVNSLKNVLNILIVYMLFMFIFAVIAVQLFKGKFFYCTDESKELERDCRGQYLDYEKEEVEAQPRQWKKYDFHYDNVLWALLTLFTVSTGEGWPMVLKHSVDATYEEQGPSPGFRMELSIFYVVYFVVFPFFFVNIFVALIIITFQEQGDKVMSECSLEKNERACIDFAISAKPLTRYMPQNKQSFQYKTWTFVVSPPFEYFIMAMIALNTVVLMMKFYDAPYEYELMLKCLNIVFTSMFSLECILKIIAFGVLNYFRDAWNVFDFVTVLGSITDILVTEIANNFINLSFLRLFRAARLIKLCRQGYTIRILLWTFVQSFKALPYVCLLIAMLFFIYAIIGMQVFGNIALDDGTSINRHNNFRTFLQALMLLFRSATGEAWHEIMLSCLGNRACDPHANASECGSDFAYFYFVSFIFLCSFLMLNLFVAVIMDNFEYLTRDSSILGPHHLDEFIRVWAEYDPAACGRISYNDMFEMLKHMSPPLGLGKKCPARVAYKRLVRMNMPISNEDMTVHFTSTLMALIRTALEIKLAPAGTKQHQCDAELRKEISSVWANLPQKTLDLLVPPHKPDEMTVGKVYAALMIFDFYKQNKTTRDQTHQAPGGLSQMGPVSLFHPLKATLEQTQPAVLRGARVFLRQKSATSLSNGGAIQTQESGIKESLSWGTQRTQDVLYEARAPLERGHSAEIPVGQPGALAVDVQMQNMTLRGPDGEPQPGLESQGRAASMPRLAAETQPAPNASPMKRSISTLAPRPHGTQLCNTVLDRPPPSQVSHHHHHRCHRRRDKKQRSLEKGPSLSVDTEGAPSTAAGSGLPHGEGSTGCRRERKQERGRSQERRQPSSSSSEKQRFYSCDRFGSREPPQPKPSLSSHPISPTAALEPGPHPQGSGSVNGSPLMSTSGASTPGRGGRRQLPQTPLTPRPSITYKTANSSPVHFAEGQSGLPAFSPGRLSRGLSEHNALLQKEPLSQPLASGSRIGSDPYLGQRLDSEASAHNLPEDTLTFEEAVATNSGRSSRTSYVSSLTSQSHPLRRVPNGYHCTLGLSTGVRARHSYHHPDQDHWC", "details": "in vivo; cited from earlier work"}
{"smiles": "CSCC[C@@H]1NC(=O)[C@H](CC(C)C)NC(=O)[C@H](CCCNC(=N)N)NC(=O)[C@H](CO)NC(=O)[C@@H]2CSSC[C@@H]3NC(=O)[C@H](CO)NC(=O)CNC(=O)[C@H]([C@@H](C)O)NC(=O)[C@H](CSSC[C@H](N)C(=O)N[C@@H](CCCCN)C(=O)NCC(=O)N[C@@H](CCCCN)C(=O)NCC(=O)N[C@@H](C)C(=O)N[C@@H](CCCCN)C(=O)N2)NC(=O)[C@H](CSSC[C@@H](C(N)=O)NC(=O)[C@H](CCCCN)NC(=O)CNC(=O)[C@H](CO)NC(=O)[C@H](CCCNC(=N)N)NC3=O)NC(=O)[C@H](CC(=O)O)NC(=O)[C@H](Cc2ccc(O)cc2)NC1=O", "note": "[SNX-111]", "values": [{"measurement": "phase II formalin response", "result": "inhibited"}]}
